# Measured values taken from patent publication US9908897B2, “Spirocyclic derivatives” (CHRONOS THERAPEUTICS LIMITED, priority 2014, dated 2018).
# What was measured:
# [1] = biological target: human dopamine transporter (DAT) (Homo sapiens (Human), UniProt Q01959); assay: Scintillation Proximity Assay (SPA) competition binding, human DAT; settings: recombinant hDAT-CHO membranes, [3H]WIN-35,428
# Outline: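 SPA binding on membranes from CHO cells stably expressing human DAT, with 5 nM [3H]WIN-35,428, WGA-PVT beads and 0.02% BSA in HEPES/NaCl/KCl buffer pH 7.4.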
# [2] = biological target: human norepinephrine transporter (NET) (Homo sapiens (Human), UniProt P23975); assay: Scintillation Proximity Assay (SPA) competition binding, human NET; settings: recombinant hNET-CHO membranes, [3H]nisoxetine
# [3] = biological target: human serotonin transporter (SERT) (Homo sapiens (Human), UniProt P31645); assay: Scintillation Proximity Assay (SPA) competition binding, human SERT; settings: recombinant hSERT-CHO membranes, [3H]citalopram
# [4] = biological target: human ERG potassium channel (hERG) (Homo sapiens (Human), UniProt Q12809); assay: hERG tail current recording, Rapid ICE automated patch-clamp; assay type: cell-based; settings: HEK293 cells stably transfected with hERG
# Procedure: Measure of the Effect on hERG Channel by Tail Current Recording Using In Vitro Rapid ICE™
# The potency of the compounds of the invention in inhibiting human ERG potassium channel (hERG) tail current is assessed in a recombinant HEK293 cell line stably transfected with hERG cDNA using Rapid ICE™ (Rapid Ion Channel Electrophysiology) assay. Rapid ICE™ is an automated patch-clamp assay utilizing the PatchXpress 7000A system (Molecular Devices Corporation) or the QPatch HTX system (Sophion Bioscience A/S).
# Briefly cells are cultivated for 24 to 72 hours before recordings in minimum essential medium supplemented with 10% FBS, 1% non-essential amino acids, 1% sodium pyruvate, 2 mM L-glutamine. The day of the experiment cells are detached with TrypLE and prepared to be loaded on the instrument. For PatchXpress cells are finally resuspended in 150 μl of Extracellular Buffer whereas for QPatch cells are resuspended in 7 ml Serum-Free Media containing 25 mM Hepes and Soybean trypsin inhibitor and immediately placed in the cell storage tank of the machine. The composition of the Extracellular Buffer is (mM): NaCl 137; KCl 4; CaCl2 1.8; MgCl2 1.0; D-glucose 10; N 2 hydroxyethylpiperazine-N′-2-ethanesulfonic acid (HEPES) 10; pH 7.4 with 1 M NaOH. The composition of the pipette solution is (mM): KCl 130; MgCl2 1.0; Ethylene glycol-bis(β-aminoethyl ether)-N,N,N′,N′-tetraacetic acid (EGTA) 5; MgATP 5; HEPES 10; pH 7.2 with 1 M KOH. The voltage protocol includes the following steps: step from −80 mV to −50 mV for 200 ms, +20 mV for 4.8 s, step to −50 mV for 5 s then step to the holding potential of −80 mV. Compounds of the invention are dissolved in DMSO and diluted in Extracellular Buffer to achieve final test concentrations (0.1, 1 and 10 μM) in 0.1% DMSO. The voltage protocol is run and recorded continuously during the experiment. The vehicle, corresponding to 0.1% DMSO in Extracellular Buffer, is then applied for 3 min followed by the test substance in triplicate. The standard combined exposure time is 5 min. The average of tail current amplitude values recorded from 4 sequential voltage pulses is used to calculate for each cell the effect of the test substance by calculating the residual current (% control) compared with vehicle pre-treatment. Data are reported as % inhibition for each concentration tested and IC50 values are estimated using DataXpress or QPatch software. At least two cells are tested, more if results diverge.
# Sequence of human serotonin transporter (SERT) (P31645 whole entry): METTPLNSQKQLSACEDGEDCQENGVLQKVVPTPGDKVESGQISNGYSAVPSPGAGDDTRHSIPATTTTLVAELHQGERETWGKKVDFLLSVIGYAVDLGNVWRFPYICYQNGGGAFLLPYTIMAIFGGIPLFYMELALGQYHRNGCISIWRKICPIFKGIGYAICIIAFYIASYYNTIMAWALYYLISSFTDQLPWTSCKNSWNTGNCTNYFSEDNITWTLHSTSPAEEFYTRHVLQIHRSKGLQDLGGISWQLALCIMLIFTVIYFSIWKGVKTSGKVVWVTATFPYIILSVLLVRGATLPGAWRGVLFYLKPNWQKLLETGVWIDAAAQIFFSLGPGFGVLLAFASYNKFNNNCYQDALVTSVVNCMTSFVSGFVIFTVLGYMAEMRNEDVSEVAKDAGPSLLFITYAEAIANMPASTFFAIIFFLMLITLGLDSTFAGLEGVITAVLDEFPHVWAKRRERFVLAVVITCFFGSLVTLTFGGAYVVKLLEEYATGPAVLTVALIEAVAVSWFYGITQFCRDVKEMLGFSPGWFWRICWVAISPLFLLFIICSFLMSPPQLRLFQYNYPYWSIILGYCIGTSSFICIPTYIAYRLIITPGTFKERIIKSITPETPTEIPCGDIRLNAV
# Sequence of human dopamine transporter (DAT) (Q01959 whole entry): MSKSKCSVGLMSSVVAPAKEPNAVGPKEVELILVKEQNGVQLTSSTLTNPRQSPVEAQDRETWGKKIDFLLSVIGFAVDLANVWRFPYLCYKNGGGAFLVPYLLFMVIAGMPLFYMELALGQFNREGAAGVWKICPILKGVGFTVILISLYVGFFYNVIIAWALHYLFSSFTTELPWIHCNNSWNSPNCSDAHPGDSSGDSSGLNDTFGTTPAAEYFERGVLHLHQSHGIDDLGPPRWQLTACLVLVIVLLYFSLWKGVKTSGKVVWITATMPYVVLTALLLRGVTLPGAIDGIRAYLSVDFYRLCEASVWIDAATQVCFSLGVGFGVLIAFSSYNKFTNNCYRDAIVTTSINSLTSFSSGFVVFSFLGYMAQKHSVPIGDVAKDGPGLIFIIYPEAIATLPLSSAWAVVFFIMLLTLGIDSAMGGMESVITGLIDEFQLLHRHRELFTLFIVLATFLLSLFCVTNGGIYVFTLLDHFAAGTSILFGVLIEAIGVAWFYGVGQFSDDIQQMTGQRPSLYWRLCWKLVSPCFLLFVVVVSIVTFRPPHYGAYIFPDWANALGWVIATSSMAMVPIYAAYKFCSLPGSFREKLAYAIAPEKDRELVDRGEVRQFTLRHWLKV
# Sequence of human norepinephrine transporter (NET) (P23975 whole entry): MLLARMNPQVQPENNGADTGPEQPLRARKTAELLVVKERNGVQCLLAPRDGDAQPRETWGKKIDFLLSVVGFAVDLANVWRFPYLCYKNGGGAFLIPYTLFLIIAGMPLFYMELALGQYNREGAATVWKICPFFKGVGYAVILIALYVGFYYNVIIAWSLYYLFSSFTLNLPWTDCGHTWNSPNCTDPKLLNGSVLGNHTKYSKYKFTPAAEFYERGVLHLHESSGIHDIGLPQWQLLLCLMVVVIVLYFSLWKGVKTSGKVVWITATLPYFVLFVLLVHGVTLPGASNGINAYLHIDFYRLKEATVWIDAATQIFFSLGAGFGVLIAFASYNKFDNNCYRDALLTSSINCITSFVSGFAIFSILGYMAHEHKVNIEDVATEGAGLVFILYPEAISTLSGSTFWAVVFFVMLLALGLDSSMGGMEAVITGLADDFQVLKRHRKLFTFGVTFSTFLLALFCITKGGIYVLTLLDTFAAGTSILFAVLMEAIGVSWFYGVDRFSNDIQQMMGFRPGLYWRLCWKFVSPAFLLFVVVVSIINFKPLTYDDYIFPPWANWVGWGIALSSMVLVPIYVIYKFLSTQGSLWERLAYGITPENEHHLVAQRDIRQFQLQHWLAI
# Sequence of human ERG potassium channel (hERG) (Q12809 whole entry): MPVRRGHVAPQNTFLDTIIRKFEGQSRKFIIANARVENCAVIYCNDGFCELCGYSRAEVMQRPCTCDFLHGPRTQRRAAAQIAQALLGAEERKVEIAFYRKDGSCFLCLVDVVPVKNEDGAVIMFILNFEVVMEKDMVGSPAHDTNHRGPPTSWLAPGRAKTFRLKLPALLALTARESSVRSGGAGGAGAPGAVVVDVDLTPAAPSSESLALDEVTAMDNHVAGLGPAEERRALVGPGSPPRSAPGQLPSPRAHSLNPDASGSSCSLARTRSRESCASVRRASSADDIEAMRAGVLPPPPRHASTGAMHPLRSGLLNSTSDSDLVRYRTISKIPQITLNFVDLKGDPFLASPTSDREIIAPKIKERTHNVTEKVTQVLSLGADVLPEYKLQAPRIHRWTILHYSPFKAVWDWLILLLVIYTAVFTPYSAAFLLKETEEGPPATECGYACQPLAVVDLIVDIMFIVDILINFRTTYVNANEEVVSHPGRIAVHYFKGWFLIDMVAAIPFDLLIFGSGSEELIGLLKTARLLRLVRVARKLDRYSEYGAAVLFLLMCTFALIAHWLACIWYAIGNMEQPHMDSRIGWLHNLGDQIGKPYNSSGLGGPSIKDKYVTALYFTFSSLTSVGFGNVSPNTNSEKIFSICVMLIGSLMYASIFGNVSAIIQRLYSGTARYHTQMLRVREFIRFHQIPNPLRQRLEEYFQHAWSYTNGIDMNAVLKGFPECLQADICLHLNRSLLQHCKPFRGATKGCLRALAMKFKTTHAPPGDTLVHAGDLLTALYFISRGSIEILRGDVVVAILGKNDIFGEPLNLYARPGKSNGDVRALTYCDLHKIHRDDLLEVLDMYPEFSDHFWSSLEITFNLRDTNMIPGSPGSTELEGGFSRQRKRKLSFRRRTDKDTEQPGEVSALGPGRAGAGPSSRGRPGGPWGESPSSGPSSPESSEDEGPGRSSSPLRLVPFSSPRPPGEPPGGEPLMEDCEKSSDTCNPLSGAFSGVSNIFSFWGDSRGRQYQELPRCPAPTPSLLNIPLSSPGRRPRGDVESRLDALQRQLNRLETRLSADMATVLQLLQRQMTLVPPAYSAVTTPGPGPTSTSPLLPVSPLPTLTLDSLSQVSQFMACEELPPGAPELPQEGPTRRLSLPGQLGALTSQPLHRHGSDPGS
SMILES,pIC50 DAT [1],pIC50 NET [2],IC50 [3],pIC50 hERG [4],pIC50 SERT [3]
"Cl.Fc1cccc(Oc2cc(C(F)(F)F)nc(N3CCC4(CC3)CNCC(F)(F)O4)n2)c1 [Example 70, 2,2-difluoro-9-[4-(3-fluorophenoxy)-6-(trifluoromethyl)pyrimidin-2-yl]-1-oxa-4,9-diazaspiro[5.5]undecane hydrochloride]",6.65,5.17,> 100 µM,5.0,–
"Cc1cc(Oc2cccc(F)c2)nc(N2CCC3(CC2)CNCCO3)n1.Cl [Example 44, 9-[4-(3-fluorophenoxy)-6-methylpyrimidin-2-yl]-1-oxa-4,9-diazaspiro[5.5]undecane hydrochloride]",8.29,6.65,–,6.0,4.80
"Cl.Fc1cccc(Oc2cc(C3CC3)nc(N3CCC4(CC3)CNCCO4)n2)c1 [Example 65, 9-[4-cyclopropyl-6-(3-fluorophenoxy)pyrimidin-2-yl]-1-oxa-4,9-diazaspiro[5.5]undecane hydrochloride]",8.79,7.08,–,5.7,5.44
"Fc1cccc(Oc2cc(F)cc(N3CCC4(CC3)CNCCO4)c2)c1 [Example 8, 9-[3-fluoro-5-(3-fluorophenoxy)phenyl]-1-oxa-4,9-diazaspiro[5.5]undecane]",8.25,6.90,–,6.3,7.10
"O=S1(=O)CCNCC12CCN(c1cc(F)c(F)cc1Oc1cccc(F)c1)CC2 [Example 71, 9-[4,5-difluoro-2-(3-fluorophenoxy)phenyl]-1λ^6-thia-4,9-diazaspiro[5.5]undecane-1,1-dione]",6.22,4.82,–,5.1,4.55
"Fc1cccc(Oc2cc(F)c(F)cc2N2CCC3(CCCNC3)C2)c1 (stereo not shown) [Example 84, 2-[4,5-difluoro-2-(3-fluorophenoxy)phenyl]-2,7-diazaspiro[4.5]decane]",7.94,6.76,–,6.6,6.33
"O=C1NCC2(CCN(c3nc(Oc4cccc(F)c4)cc(C(F)(F)F)n3)CC2)O1 [Example 89, 8-[4-(3-fluorophenoxy)-6-(trifluoromethyl)pyrimidin-2-yl]-1-oxa-3,8-diazaspiro[4.5]decan-2-one]",7.73,5.66,–,5.7,4.89
"Cl.Fc1cccc(Oc2cc(C(F)(F)F)cc(N3CCC4(CC3)CNCCO4)n2)c1 [Example 37, 9-[6-(3-fluorophenoxy)-4-(trifluoromethyl)pyridin-2-yl]-1-oxa-4,9-diazaspiro[5.5]undecane hydrochloride]",8.86,7.07,–,5.9,5.33
"Fc1cccc(Oc2cc(F)c(F)c(N3CCC4(CC3)CNCCO4)c2)c1 [Example 13, 9-[2,3-difluoro-5-(3-fluorophenoxy)phenyl]-1-oxa-4,9-diazaspiro[5.5]undecane]",8.38,6.74,–,5.6,6.33
"COc1cccc(Oc2cc(C)nc(N3CCC4(CC3)CNCCO4)n2)c1.Cl [Example 49, 9-[4-(3-methoxyphenoxy)-6-methylpyrimidin-2-yl]-1-oxa-4,9-diazaspiro[5.5]undecane hydrochloride]",6.92,5.45,–,5.5,4.67
